From patent publication US20240327412A1, “FACTOR XIIA INHIBITORS” (KALVISTA PHARMACEUTICALS LIMITED, priority 2021, published 2024)

Legend:
Assay type in all cases: biochemical
KLK1 = KLK1 (Homo sapiens, UniProt P06870); test: Related protease inhibition: KLK1 (fluorogenic substrate at Km); details: class symbols per Table 18
Description: (§1) In vitro inhibition of related proteases was determined using an IC50 assay based on standard literature methods (see e.g. Shori et al., Biochem. Pharmacol., 1992, 43, 1209; Bouckaert et al., European Journal of Medicinal Chemistry 110 (2016) 181). Human serine protease enzyme Plasma Kallikrein, KLK1, FXa, Plasmin, Thrombin and Trypsin were assayed for enzymatic activity using an appropriate fluorogenic substrate at Km concentration, FXIa at fixed substrate concentration of 100 μM and various concentrations of the test compound. Protease activity was measured by monitoring the accumulation of liberated fluorescence from the substrate over 5 min at 25° C. The linear rate of fluorescence increase per minute was expressed as percentage (%) activity. IC50 values were calculated as the concentration of inhibitor giving 50% inhibition of the uninhibited enzyme activity (100%).

Human Factor XIIa = biological target: T1, Human Factor XIIa (Homo sapiens, UniProt P00748); test: Determination of FXIIa inhibition (fluorogenic substrate H-DPro-Phe-Arg-AFC, IC50 assay); details: substrate at Km concentration, 25° C.; category scale; read-out: Human FXII IC50 (nm)
T1 construct: Proteolytic cleavage of FXII to heavy and light chains of FXIIa dramatically increases catalytic activity; purchased Enzyme Research Laboratories
T1 sequence (P00748 373-615 limits assumed): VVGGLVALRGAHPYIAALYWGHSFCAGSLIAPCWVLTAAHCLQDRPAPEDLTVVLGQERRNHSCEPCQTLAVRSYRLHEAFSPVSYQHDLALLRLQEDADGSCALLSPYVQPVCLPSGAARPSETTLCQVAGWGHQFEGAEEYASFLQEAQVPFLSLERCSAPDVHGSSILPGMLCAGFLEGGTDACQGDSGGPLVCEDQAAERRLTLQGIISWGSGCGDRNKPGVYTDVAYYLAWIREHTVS
T1 sequence (P00748 20-372 partner limits assumed): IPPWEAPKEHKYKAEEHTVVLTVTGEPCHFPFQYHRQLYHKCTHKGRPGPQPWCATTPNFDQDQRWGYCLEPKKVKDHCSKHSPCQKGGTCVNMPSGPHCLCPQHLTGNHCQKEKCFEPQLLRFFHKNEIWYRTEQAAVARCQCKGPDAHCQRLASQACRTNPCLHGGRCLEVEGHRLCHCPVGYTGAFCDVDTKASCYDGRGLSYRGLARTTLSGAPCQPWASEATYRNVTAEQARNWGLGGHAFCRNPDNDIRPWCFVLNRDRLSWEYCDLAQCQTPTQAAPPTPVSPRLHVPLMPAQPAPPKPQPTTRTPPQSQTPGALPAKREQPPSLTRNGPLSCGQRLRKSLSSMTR
Procedure, shortened: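 At substrate Km and 25° C., the rate of AFC release from H-DPro-Phe-Arg-AFC by human Factor XIIa was followed for 5 min across compound concentrations. Inhibition was derived as percent of uninhibited rate, giving IC50.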

Plasma Kallikrein = biological target: T2, Plasma Kallikrein (Homo sapiens, UniProt P03952); test: Related protease inhibition: Plasma Kallikrein (fluorogenic substrate at Km); details: class symbols per Table 18, read-out: IC50 (human PKal)
T2 construct: FXIIa converts plasma prekallikrein (PK) to plasma kallikrein (PKa)
T2 sequence (P03952 391-638 limits assumed): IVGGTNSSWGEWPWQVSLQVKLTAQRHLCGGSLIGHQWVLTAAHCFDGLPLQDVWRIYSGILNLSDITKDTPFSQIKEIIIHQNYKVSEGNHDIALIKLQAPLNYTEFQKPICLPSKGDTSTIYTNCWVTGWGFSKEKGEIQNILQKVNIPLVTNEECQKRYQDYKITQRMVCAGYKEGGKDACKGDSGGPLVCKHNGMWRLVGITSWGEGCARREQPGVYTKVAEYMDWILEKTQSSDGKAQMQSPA
T2 sequence (P03952 20-390 partner limits assumed): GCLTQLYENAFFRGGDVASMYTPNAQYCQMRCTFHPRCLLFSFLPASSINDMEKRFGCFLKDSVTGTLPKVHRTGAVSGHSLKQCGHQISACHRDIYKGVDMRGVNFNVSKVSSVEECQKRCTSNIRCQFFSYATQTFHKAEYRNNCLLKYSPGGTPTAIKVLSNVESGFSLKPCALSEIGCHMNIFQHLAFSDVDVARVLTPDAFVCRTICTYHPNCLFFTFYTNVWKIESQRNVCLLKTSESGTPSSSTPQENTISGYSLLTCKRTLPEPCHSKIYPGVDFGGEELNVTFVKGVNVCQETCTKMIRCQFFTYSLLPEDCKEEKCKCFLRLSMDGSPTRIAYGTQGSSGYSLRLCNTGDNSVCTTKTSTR
Description: as §1

KLK1, sequence (P06870 25-262): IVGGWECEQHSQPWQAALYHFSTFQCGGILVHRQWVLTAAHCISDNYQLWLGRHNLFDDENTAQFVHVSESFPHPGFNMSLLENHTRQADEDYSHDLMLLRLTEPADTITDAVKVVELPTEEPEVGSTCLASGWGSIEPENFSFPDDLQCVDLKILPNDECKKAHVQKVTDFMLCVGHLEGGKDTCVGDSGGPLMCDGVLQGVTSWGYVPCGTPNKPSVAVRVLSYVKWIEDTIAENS

Compound | IC50 (KLK1) | IC50 (Human Factor XIIa) | IC50 (Plasma Kallikrein)
Clc1ccc2c(NCC34CC(COc5ccn6ccnc6c5)(CCO3)C4)ccnc2c1 [Example 10921, 7-chloro-N-((5-((imidazo[1,2-a]pyridin-7-yloxy)methyl)-2-oxabicyclo[3.1.1]heptan-1-yl)methyl)quinolin-4-amine] | 10 to 40 µM | 40 to 100 µM | –
Nc1nccc2c(NC34CC(COc5ccc6nccn6c5)(C3)C4)cccc12 [Example 1131, N5-(3-((imidazo[1,2-a]pyridin-6-yloxy)methyl)bicyclo[1.1.1]pentan-1-yl)isoquinoline-1,5-diamine] | – | 10 to 40 µM | > 40 µM
Cn1cccc(OCC23CCOC(CNc4cccc5c(N)nccc45)(C2)C3)c1=O [Example 10911, 3-((1-(((1-aminoisoquinolin-5-yl)amino)methyl)-2-oxabicyclo[3.1.1]heptan-5-yl)methoxy)-1-methylpyridin-2(1H)-one] | – | 3 to 10 µM | > 40 µM
Nc1nccc2c(NCC34CC(COc5ccc6c(c5)NC(=O)C6)(C3)C4)cccc12 [Example 1113, 6-((3-(((1-aminoisoquinolin-5-yl)amino)methyl)bicyclo[1.1.1]pentan-1-yl)methoxy)indolin-2-one] | – | 1 to 3 µM | > 40 µM
Nc1nccc2c(NCC34CC(COc5ccc6cn[nH]c6c5)(C3)C4)cccc12 [Example 1125, N5-((3-(((1H-indazol-6-yl)oxy)methyl)bicyclo[1.1.1]pentan-1-yl)methyl)isoquinoline-1,5-diamine] | – | 10 to 40 µM | > 40 µM
Nc1nccc2c(N3CCC4(CC(OCc5ccn6ccnc6c5)C4)C3)cccc12 (stereo not drawn) [Example 8804, 5-(cis*-2-(imidazo[1,2-a]pyridin-7-ylmethoxy)-6-azaspiro[3.4]octan-6-yl)isoquinolin-1-amine] | – | 1 to 3 µM | > 40 µM
Nc1nccc2c(N3CC4(CCC4OCc4ccn5ccnc5c4)C3)cccc12 (single isomer, unassigned) [Example 9002, (R*)-5-(5-(imidazo[1,2-a]pyridin-7-ylmethoxy)-2-azaspiro[3.3]heptan-2-yl)isoquinolin-1-amine] | – | 10 to 40 µM | > 40 µM
Clc1cc2c(NCC34CC(COc5ccc6nccn6c5)(CCO3)C4)ccnc2[nH]1 [Example 10909, 2-Chloro-N-[[5-(imidazo[1,2-a]pyridin-6-yloxymethyl)-2-oxabicyclo[3.1.1]heptan-1-yl]methyl]-1H-pyrrolo[2,3-b]pyridin-4-amine] | – | 1 to 3 µM | > 40 µM
Nc1nccc2c(NCC34CC(COc5ccc6nccn6n5)(CO3)C4)cccc12 [Example 6612, N5-((4-((imidazo[1,2-b]pyridazin-6-yloxy)methyl)-2-oxabicyclo[2.1.1]hexan-1-yl)methyl)isoquinoline-1,5-diamine] | – | 1 to 3 µM | > 40 µM
Nc1nccc2c(NCC34COC(COc5ccn6ncnc6c5)(C3)C4)cccc12 [Example 2207, N5-((1-(([1,2,4]triazolo[1,5-a]pyridin-7-yloxy)methyl)-2-oxabicyclo[2.1.1]hexan-4-yl)methyl)isoquinoline-1,5-diamine] | – | 1 to 3 µM | > 40 µM
Nc1nccc2c(N3CCC4(CC(OCc5ccn6ccnc6c5)C4)C3)cccc12 (stereo not shown) [Example 8803, 5-(2-(imidazo[1,2-a]pyridin-7-ylmethoxy)-6-azaspiro[3.4]octan-6-yl)isoquinolin-1-amine] | – | 1 to 3 µM | > 40 µM

Next, values leading:

IC50 (KLK1) | IC50 (Human Factor XIIa) | IC50 (Plasma Kallikrein) | Compound
0.3 to 1 µM | 0.3 to 1 µM | – | Nc1ncc(Cl)c2cc(NCC34CC(COc5ccn6ccnc6c5)(CCO3)C4)ccc12 [Example 10922, 4-chloro-N6-((5-((imidazo[1,2-a]pyridin-7-yloxy)methyl)-2-oxabicyclo[3.1.1]heptan-1-yl)methyl)isoquinoline-1,6-diamine]
1 to 3 µM | 0.01 to 0.1 µM | – | Cc1c(OCC23COC(CNc4cccc5c(N)nccc45)(C2)C3)ccc2nccn12 [Example 6626, N5-((4-(((5-methylimidazo[1,2-a]pyridin-6-yl)oxy)methyl)-2-oxabicyclo[2.1.1]hexan-1-yl)methyl)isoquinoline-1,5-diamine]
3 to 10 µM | 1 to 3 µM | – | Nc1nccc2c(NCC34CC(COc5ccc6ncc(C(F)(F)F)n6c5)(CO3)C4)cccc12 [Example 6627, N5-((4-(((3-(trifluoromethyl)imidazo[1,2-a]pyridin-6-yl)oxy)methyl)-2-oxabicyclo[2.1.1]hexan-1-yl)methyl)isoquinoline-1,5-diamine]
3 to 10 µM | 0.1 to 0.3 µM | – | CN1Cc2ccc(OCC34COC(CNc5cccc6c(N)nccc56)(C3)C4)cc2C1=O [Example 6628, 6-((1-(((1-aminoisoquinolin-5-yl)amino)methyl)-2-oxabicyclo[2.1.1]hexan-4-yl)methoxy)-2-methylisoindolin-1-one]
– | 1 to 3 µM | > 40 µM | Nc1nccc2c(CCC34CC(COc5ccn6ccnc6c5)(C3)C4)cccc12 [Example 1014, 5-[2-[3-(Imidazo[1,2-a]pyridin-7-yloxymethyl)-1-bicyclo[1.1.1]pentanyl]ethyl]isoquinolin-1-amine]
– | 1 to 3 µM | > 40 µM | Nc1nccc2c(NCC34COC(COc5ccn6c(C(F)(F)F)nnc6c5)(C3)C4)cccc12 [Example 2206, N5-((1-(((3-(trifluoromethyl)-[1,2,4]triazolo[4,3-a]pyridin-7-yl)oxy)methyl)-2-oxabicyclo[2.1.1]hexan-4-yl)methyl)isoquinoline-1,5-diamine]
– | 1 to 3 µM | > 40 µM | Nc1nccc2c(N3CCC4(CC(OCc5ccn6ccnc6c5)C4)C3)cccc12 (stereo not drawn) [Example 8805, 5-(trans*-2-(imidazo[1,2-a]pyridin-7-ylmethoxy)-6-azaspiro[3.4]octan-6-yl)isoquinolin-1-amine]
– | 0.3 to 1 µM | > 40 µM | Nc1nccc2c(NCC34CC(COc5cccn6ccnc56)(C3)C4)cccc12 [Example 1018, 5-N-[[3-(Imidazo[1,2-a]pyridin-8-yloxymethyl)-1-bicyclo[1.1.1]pentanyl]methyl]isoquinoline-1,5-diamine]
3 to 10 µM | 0.1 to 0.3 µM | – | Nc1nccc2c(NCC34CC(COc5cc(Cl)c6nccn6c5)(CCO3)C4)cccc12 [Example 10924, N5-((5-(((8-chloroimidazo[1,2-a]pyridin-6-yl)oxy)methyl)-2-oxabicyclo[3.1.1]heptan-1-yl)methyl)isoquinoline-1,5-diamine]
10 to 40 µM | 0.3 to 1 µM | – | Nc1nccc2c(OCC34CC(CNc5ccc6nccn6c5)(CO3)C4)cccc12 [Example 6619, 5-((4-((imidazo[1,2-a]pyridin-6-ylamino)methyl)-2-oxabicyclo[2.1.1]hexan-1-yl)methoxy)isoquinolin-1-amine]
– | 0.1 to 0.3 µM | > 40 µM | Nc1nccc2c(NCC34CC(COc5ccc6nnc(C(F)F)n6n5)(CCO3)C4)cccc12 [Example 10910, N5-((5-(((3-(difluoromethyl)-[1,2,4]triazolo[4,3-b]pyridazin-6-yl)oxy)methyl)-2-oxabicyclo[3.1.1]heptan-1-yl)methyl)isoquinoline-1,5-diamine]
– | 0.3 to 1 µM | > 40 µM | Nc1nccc2c(NCC34CC(COC5CCc6nccn6C5)(CCO3)C4)cccc12 (stereo not shown) [Example 10908, N5-((5-(((5,6,7,8-tetrahydroimidazo[1,2-a]pyridin-6-yl)oxy)methyl)-2-oxabicyclo[3.1.1]heptan-1-yl)methyl)isoquinoline-1,5-diamine]
